Reference: patent publication US20070049564A1 (Wyeth, priority 2005, published 2007)
Converted amounts (≈) assume the structure as drawn. Like-named read-outs stand apart in the source and are kept apart here.

Assays:
E. faecalis GC 2242 = assay: MIC, broth microdilution; conditions: Enterococcus faecalis
E. coli = assay: Range of MIC for E. coli strains; conditions: Escherichia coli, 20 h, read-out: Range of MIC, E. coli (Mouse Serum)
S. aureus GC 4536 = assay: MIC, broth microdilution; conditions: Staphylococcus aureus
E. faecium GC 4556 = assay: MIC, broth microdilution; conditions: Enterococcus faecium
E. coli GC 2236 = assay: MIC, broth microdilution; conditions: Escherichia coli
S. typhimurium GC 2172 = assay: MIC, broth microdilution; conditions: Salmonella enterica, TYPHIMURIUM
Staph. = assay: Range of MIC for Staph. strains, including MRSA; conditions: Staphylococcus aureus
S. agalactiae GC 4564 = assay: MIC, broth microdilution; conditions: Streptococcus agalactiae
E. coli GC 2232 = assay: MIC, broth microdilution; conditions: Escherichia coli
S. pneumoniae* GC 4465 = assay: MIC, broth microdilution; conditions: Streptococcus pneumoniae
S. pyogenes GC 4563 = assay: MIC, broth microdilution; conditions: Streptococcus pyogenes
E. coli GC 2234 = assay: MIC, broth microdilution; conditions: Escherichia coli
S. pneumoniae+ GC 4465 = assay: MIC, broth microdilution; conditions: Streptococcus pneumoniae
E. coli GC 2231 = assay: MIC, broth microdilution; conditions: Escherichia coli
Staph. aureus Smith = assay: In vivo activity (oral, iv; ED50) against Staph. aureus Smith in mice
E. coli GC 4559 = assay: MIC, broth microdilution; conditions: Escherichia coli
E. coli GC 2235 = assay: MIC, broth microdilution; conditions: Escherichia coli
S. aureus GC 2216 = assay: MIC, broth microdilution; conditions: Staphylococcus aureus
S. aureus GC 6466 = assay: MIC, broth microdilution; conditions: Staphylococcus aureus
E. faecalis GC 4555 = assay: MIC, broth microdilution; conditions: Enterococcus faecalis
[1] = read-out: MINIMAL INHIBITORY CONCENTRATION MIC, Human Serum
[2] = read-out: MINIMAL INHIBITORY CONCENTRATION MIC, Mouse Serum
[3] = read-out: MINIMAL INHIBITORY CONCENTRATION MIC, Water

- MIC (E. faecalis GC 2242; GC2242, read-out: MINIMAL INHIBITORY CONCENTRATION MIC, Human Serum): 1 µg/mL (≈ 1.3 µM)
- MIC (E. faecalis GC 2242; GC2242, read-out: MINIMAL INHIBITORY CONCENTRATION MIC, Mouse Serum): 0.5 µg/mL (≈ 0.648 µM)
- MIC (E. faecalis GC 2242; GC2242, read-out: MINIMAL INHIBITORY CONCENTRATION MIC, Water): 1 µg/mL (≈ 1.3 µM)
- MIC (E. coli): 0.25 to 2 µg/mL (≈ 0.324 to 2.59 µM)
- MIC (S. aureus GC 4536; GC4536, read-out: MINIMAL INHIBITORY CONCENTRATION MIC, Human Serum): 0.25 µg/mL (≈ 0.324 µM)
- MIC (S. aureus GC 4536; GC4536, read-out: MINIMAL INHIBITORY CONCENTRATION MIC, Mouse Serum): 0.25 µg/mL (≈ 0.324 µM)
- MIC (S. aureus GC 4536; GC4536, read-out: MINIMAL INHIBITORY CONCENTRATION MIC, Water): 0.25 µg/mL (≈ 0.324 µM)
- MIC (E. faecium GC 4556; GC4556, read-out: MINIMAL INHIBITORY CONCENTRATION MIC, Human Serum): 1 µg/mL (≈ 1.3 µM)
- MIC (E. faecium GC 4556; GC4556, read-out: MINIMAL INHIBITORY CONCENTRATION MIC, Mouse Serum): 0.5 µg/mL (≈ 0.648 µM)
- MIC (E. faecium GC 4556; GC4556, read-out: MINIMAL INHIBITORY CONCENTRATION MIC, Water): 1 µg/mL (≈ 1.3 µM)
- MIC (E. coli GC 2236; GC2236, read-out: MINIMAL INHIBITORY CONCENTRATION MIC, Human Serum): 16 µg/mL (≈ 20.7 µM)
- MIC (E. coli GC 2236; GC2236, read-out: MINIMAL INHIBITORY CONCENTRATION MIC, Mouse Serum): 0.25 µg/mL (≈ 0.324 µM)
- MIC (E. coli GC 2236; GC2236, read-out: MINIMAL INHIBITORY CONCENTRATION MIC, Water): 64 µg/mL (≈ 82.9 µM)
- MIC (S. typhimurium GC 2172; [1]): > 64 µg/mL
- MIC (S. typhimurium GC 2172; [2]): 4 µg/mL (≈ 5.18 µM)
- MIC (S. typhimurium GC 2172; [3]): > 64 µg/mL
- MIC (Staph.; MRSA, read-out: Range of MIC, Staph (Mouse Serum)): 0.12 to 2 µg/mL (≈ 0.155 to 2.59 µM)
- MIC (Staph.; MRSA, read-out: Range of MIC, Staph (Water)): 0.12 to 2 µg/mL (≈ 0.155 to 2.59 µM)
- MIC (Staph.; read-out: Minimum inhibitory concentration (MIC), Staph (Human Serum)): 0.12 to 2 µg/mL (≈ 0.155 to 2.59 µM)
- MIC (Staph.; read-out: Minimum inhibitory concentration (MIC), Staph (Water)): 0.12 to 2 µg/mL (≈ 0.155 to 2.59 µM)
- MIC (S. agalactiae GC 4564; GC4564, read-out: MINIMAL INHIBITORY CONCENTRATION MIC, Human Serum): 0.12 µg/mL (≈ 0.155 µM)
- MIC (S. agalactiae GC 4564; GC4564, read-out: MINIMAL INHIBITORY CONCENTRATION MIC, Mouse Serum): 0.12 µg/mL (≈ 0.155 µM)
- MIC (S. agalactiae GC 4564; GC4564, read-out: MINIMAL INHIBITORY CONCENTRATION MIC, Water): 0.12 µg/mL (≈ 0.155 µM)
- MIC (E. coli GC 2232; GC2232, read-out: MINIMAL INHIBITORY CONCENTRATION MIC, Human Serum): 16 µg/mL (≈ 20.7 µM)
- MIC (E. coli GC 2232; GC2232, read-out: MINIMAL INHIBITORY CONCENTRATION MIC, Mouse Serum): 0.25 µg/mL (≈ 0.324 µM)
- MIC (E. coli GC 2232; GC2232, read-out: MINIMAL INHIBITORY CONCENTRATION MIC, Water): 64 µg/mL (≈ 82.9 µM)
- MIC (S. pneumoniae* GC 4465; [1]): 0.12 µg/mL (≈ 0.155 µM)
- MIC (S. pneumoniae* GC 4465; [2]): 0.12 µg/mL (≈ 0.155 µM)
- MIC (S. pneumoniae* GC 4465; [3]): 0.12 µg/mL (≈ 0.155 µM)
- MIC (S. pyogenes GC 4563; GC4563, read-out: MINIMAL INHIBITORY CONCENTRATION MIC, Human Serum): 0.12 µg/mL (≈ 0.155 µM)
- MIC (S. pyogenes GC 4563; GC4563, read-out: MINIMAL INHIBITORY CONCENTRATION MIC, Mouse Serum): 0.12 µg/mL (≈ 0.155 µM)
- MIC (S. pyogenes GC 4563; GC4563, read-out: MINIMAL INHIBITORY CONCENTRATION MIC, Water): 0.12 µg/mL (≈ 0.155 µM)
- MIC (E. coli GC 2234; GC2234, read-out: MINIMAL INHIBITORY CONCENTRATION MIC, Human Serum): 16 µg/mL (≈ 20.7 µM)
- MIC (E. coli GC 2234; GC2234, read-out: MINIMAL INHIBITORY CONCENTRATION MIC, Mouse Serum): 0.5 µg/mL (≈ 0.648 µM)
- MIC (E. coli GC 2234; GC2234, read-out: MINIMAL INHIBITORY CONCENTRATION MIC, Water): 64 µg/mL (≈ 82.9 µM)
- MIC (S. pneumoniae+ GC 4465; [1]): 0.25 µg/mL (≈ 0.324 µM)
- MIC (S. pneumoniae+ GC 4465; [2]): 0.25 µg/mL (≈ 0.324 µM)
- MIC (S. pneumoniae+ GC 4465; [3]): 0.25 µg/mL (≈ 0.324 µM)
- MIC (E. coli GC 2231; GC2231, read-out: MINIMAL INHIBITORY CONCENTRATION MIC, Human Serum): 16 µg/mL (≈ 20.7 µM)
- MIC (E. coli GC 2231; GC2231, read-out: MINIMAL INHIBITORY CONCENTRATION MIC, Mouse Serum): 0.5 µg/mL (≈ 0.648 µM)
- MIC (E. coli GC 2231; GC2231, read-out: MINIMAL INHIBITORY CONCENTRATION MIC, Water): 64 µg/mL (≈ 82.9 µM)
- MIC (E. coli GC 4559; GC4559, read-out: MINIMAL INHIBITORY CONCENTRATION MIC, Human Serum): 32 µg/mL (≈ 41.5 µM)
- MIC (E. coli GC 4559; GC4559, read-out: MINIMAL INHIBITORY CONCENTRATION MIC, Mouse Serum): 0.25 µg/mL (≈ 0.324 µM)
- MIC (E. coli GC 4559; GC4559, read-out: MINIMAL INHIBITORY CONCENTRATION MIC, Water): > 64 µg/mL
- MIC (E. coli GC 2235; GC2235, read-out: MINIMAL INHIBITORY CONCENTRATION MIC, Human Serum): 16 µg/mL (≈ 20.7 µM)
- MIC (E. coli GC 2235; GC2235, read-out: MINIMAL INHIBITORY CONCENTRATION MIC, Mouse Serum): 0.25 µg/mL (≈ 0.324 µM)
- MIC (E. coli GC 2235; GC2235, read-out: MINIMAL INHIBITORY CONCENTRATION MIC, Water): 32 µg/mL (≈ 41.5 µM)
- MIC (S. aureus GC 2216; GC2216, read-out: MINIMAL INHIBITORY CONCENTRATION MIC, Human Serum): 0.25 µg/mL (≈ 0.324 µM)
- MIC (S. aureus GC 2216; GC2216, read-out: MINIMAL INHIBITORY CONCENTRATION MIC, Mouse Serum): 0.25 µg/mL (≈ 0.324 µM)
- MIC (S. aureus GC 2216; GC2216, read-out: MINIMAL INHIBITORY CONCENTRATION MIC, Water): 0.5 µg/mL (≈ 0.648 µM)
- MIC (S. aureus GC 6466; GC6466, read-out: MINIMAL INHIBITORY CONCENTRATION MIC, Human Serum): 0.12 µg/mL (≈ 0.155 µM)
- MIC (S. aureus GC 6466; GC6466, read-out: MINIMAL INHIBITORY CONCENTRATION MIC, Mouse Serum): 0.12 µg/mL (≈ 0.155 µM)
- MIC (S. aureus GC 6466; GC6466, read-out: MINIMAL INHIBITORY CONCENTRATION MIC, Water): 0.12 µg/mL (≈ 0.155 µM)
- MIC (E. faecalis GC 4555; GC4555, read-out: MINIMAL INHIBITORY CONCENTRATION MIC, Human Serum): 4 µg/mL (≈ 5.18 µM)
- MIC (E. faecalis GC 4555; GC4555, read-out: MINIMAL INHIBITORY CONCENTRATION MIC, Mouse Serum): 0.12 µg/mL (≈ 0.155 µM)
- MIC (E. faecalis GC 4555; GC4555, read-out: MINIMAL INHIBITORY CONCENTRATION MIC, Water): 2 µg/mL (≈ 2.59 µM)
SMILES: CCCCCCC(=O)OCOC(=O)N(CC(=O)Nc1cc(N(C)C)c2c(c1O)C(=O)C1=C(O)[C@]3(O)C(=O)C(C(N)=O)=C(O)[C@@H](N(C)C)[C@@H]3C[C@@H]1C2)C(C)(C)C [Example 48, ({[(2-{[(5aR,6aS,7S,10aS)-9-(aminocarbonyl)-4,7-bis(dimethylamino)-1,8,10a,11-tetrahydroxy-10,12-dioxo-5,5a,6,6a,7,10,10a,12-octahydrotetracen-2-yl]amino}-2-oxoethyl)(tert-butyl)amino]carbonyl}oxy)methyl heptanoate]
- ED50 (Staph. aureus Smith; Staphylococcus aureus, in Mus musculus, iv, read-out: ED50 SIV (Staph aureus Smith)): 1.1 mg/kg
- ED50 (Staph. aureus Smith; Staphylococcus aureus, in Mus musculus, po, read-out: ED50 SOD (Staph aureus Smith)): 10.1 mg/kg
- ED50 (Staph. aureus Smith; Staphylococcus aureus, in Mus musculus, po, read-out: ED50 Staph Smith SOD): 10.1 mg/kg
- ED50 (Staph. aureus Smith; iv, read-out: ED50 Staph Smith SIV): 1.1 mg/kg
